Measured values from the supplement of paper PMC11208160.
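Note: IS621 bridge recombinase in Escherichia coli cells against a fixed T5 target plasmid.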

Assay: recombinant UMI read abundance after kanamycin selection (control-corrected) (log10(CPM+1)); higher = more efficient recombination; extreme values may be limits of the assay; sequences stand for … in AGTGCAGAGAAAATCGGCCAGTTTTCTCTGCCTGCAGTCCGCATGCCGTGGGACCCCTTGGGTTCTAACCTGTTGCCTAGATTTATGCAGCGGACTGCCTTTCTCCCAAAGTGATAAACCGG…AGGTTGGTTTCACT; site = the 11-nt donor
In short: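 The measure is log10(CPM+1) for recombinant UMIs. These were PCR-amplified across the donor–target junction and sequenced after Escherichia coli carrying a donor and donor-binding-loop pair library and a target plasmid with T7-inducible IS621 bridge recombinase was plated on IPTG (0.07 mM) plus kanamycin or unselected. CPM were averaged over two replicates and scaled by control-derived factors.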
With “AGGACTACATGGACCGGTTTTCCCGGTAATCCGTATTTGAG (site AGGACTACTCT)” the “recombinant UMI read abundance (log10)” value was 1.54.
With “AGGACTACATGGACCGGTTTTCCCGGTAATCCGTATTTGAG (site AGGACTACTGT)” the “recombinant UMI read abundance (log10)” value was 0.
In the case of “AGGACTACATGGACCGGTTTTCCCGGTAATCCGTATTTGAG (site AGGACTACTTT)”, the “recombinant UMI read abundance (log10)” value is reported as 0.493.
For “AGGACTACATGGACCGGTTTTCCCGGTAATCCGTATTTGAT (site AGGACTACTAT)”, the “recombinant UMI read abundance (log10)” value was 1.77.
With “AGGACTACATGGACCGGTTTTCCCGGTAATCCGTATTTGAT (site AGGACTACTCT)” the “recombinant UMI read abundance (log10)” value was 0.00954.
With “AGGACTACATGGACCGGTTTTCCCGGTAATCCGTATTTGAT (site AGGACTACTGT)” the “recombinant UMI read abundance (log10)” value was 0.
With “AGGACTACATGGACCGGTTTTCCCGGTAATCCGTATTTGAT (site AGGACTACTTT)” the “recombinant UMI read abundance (log10)” value was 0.00536.
With “AGGACTACATGGACCGGTTTTCCCGGTAATCCGTATTTGCT (site AGGACTACTAG)” the “recombinant UMI read abundance (log10)” value was 2.5.
For “AGGACTACATGGACCGGTTTTCCCGGTAATCCGTATTTGTC (site AGGACTACTGA)”, the “recombinant UMI read abundance (log10)” value was 2.
With “AGGACTACATGGACCGGTTTTCCCGGTAATCCGTATTTGTC (site AGGACTACTGC)” the “recombinant UMI read abundance (log10)” value was 0.
With “AGGACTACATGGACCGGTTTTCCCGGTAATCCGTATTTGTC (site AGGACTACTGG)” the “recombinant UMI read abundance (log10)” value was 0.
For “AGGACTACATGGACCGGTTTTCCCGGTAATCCGTATTTGTC (site AGGACTACTGT)”, the “recombinant UMI read abundance (log10)” value was 1.37.
With “AGGAGCACATGGACCGGTTTTCCCGGTAATCCGTATTTGCA (site AGGAAGACTTG)” the “recombinant UMI read abundance (log10)” value was 0.
For “AGGAGCACATGGACCGGTTTTCCCGGTAATCCGTATTTGCA (site AGGAGCACTTG)”, the “recombinant UMI read abundance (log10)” value was 2.37.
With “AGGAGGCCATGGACCGGTTTTCCCGGTAATCCGTATTTGAG (site AGGAGGCCTCT)” the “recombinant UMI read abundance (log10)” value was 0.233.
For “AGGATCTCATGGACCGGTTTTCCCGGTAATCCGTATTTGTG (site AGGATCTCTCA)”, the “recombinant UMI read abundance (log10)” value was 2.92.
With “AGGATTTCATGGACCGGTTTTCCCGGTAATCCGTATTTGCG (site AGGATTTCTCG)” the “recombinant UMI read abundance (log10)” value was 1.32.
In the case of “AGGCAAACATGGACCGGTTTTCCCGGTAATCCGTATTTGTA (site AGGCAAACTTA)”, the “recombinant UMI read abundance (log10)” value is reported as 1.9.
With “AGGCAGACATGGACCGGTTTTCCCGGTAATCCGTATTTGCA (site AGGAAGACTTG)” the “recombinant UMI read abundance (log10)” value was 0.346.
With “AGGCAGACATGGACCGGTTTTCCCGGTAATCCGTATTTGCA (site AGGCAGACTTG)” the “recombinant UMI read abundance (log10)” value was 2.49.
For “AGGCAGACATGGACCGGTTTTCCCGGTAATCCGTATTTGCA (site AGGGAGACTTG)”, the “recombinant UMI read abundance (log10)” value was 0.0572.
With “AGGCAGACATGGACCGGTTTTCCCGGTAATCCGTATTTGCA (site AGGTAGACTTG)” the “recombinant UMI read abundance (log10)” value was 0.965.
With “AGGCAGACATGGACCGGTTTTCCCGGTAATCCGTATTTGCT (site AGGAAGACTTG)” the “recombinant UMI read abundance (log10)” value was 0.
In the case of “AGGCAGACATGGACCGGTTTTCCCGGTAATCCGTATTTGCT (site AGGCAGACTAG)”, the “recombinant UMI read abundance (log10)” value is reported as 2.13.
In the case of “AGGCCGGCATGGACCGGTTTTCCCGGTAATCCGTATTTGGC (site AGGCCGGCTGC)”, the “recombinant UMI read abundance (log10)” value is reported as 1.07.
In the case of “AGGCCGGCATGGACCGGTTTTCCCGGTAATCCGTATTTGGC (site CGGCCGGCTGC)”, the “recombinant UMI read abundance (log10)” value is reported as 0.
In the case of “AGGCCGGCATGGACCGGTTTTCCCGGTAATCCGTATTTGGC (site GGGCCGGCTGC)”, the “recombinant UMI read abundance (log10)” value is reported as 0.
For “AGGCCGGCATGGACCGGTTTTCCCGGTAATCCGTATTTGGC (site TGGCCGGCTGC)”, the “recombinant UMI read abundance (log10)” value was 0.
With “AGGCCTACATGGACCGGTTTTCCCGGTAATCCGTATTTGAC (site AGGACTACTGT)” the “recombinant UMI read abundance (log10)” value was 0.528.
In the case of “AGGCCTACATGGACCGGTTTTCCCGGTAATCCGTATTTGAC (site AGGCCTACTGT)”, the “recombinant UMI read abundance (log10)” value is reported as 2.67.
With “AGGCCTACATGGACCGGTTTTCCCGGTAATCCGTATTTGAC (site AGGGCTACTGT)” the “recombinant UMI read abundance (log10)” value was 0.
For “AGGCCTACATGGACCGGTTTTCCCGGTAATCCGTATTTGAC (site AGGTCTACTGT)”, the “recombinant UMI read abundance (log10)” value was 0.
With “AGGCGTTCATGGACCGGTTTTCCCGGTAATCCGTATTTGTG (site AGGCGTTCTCA)” the “recombinant UMI read abundance (log10)” value was 1.09.
In the case of “AGGCTTTCATGGACCGGTTTTCCCGGTAATCCGTATTTGAC (site AGACTTTCTGT)”, the “recombinant UMI read abundance (log10)” value is reported as 0.817.
For “AGGCTTTCATGGACCGGTTTTCCCGGTAATCCGTATTTGAC (site AGCCTTTCTGT)”, the “recombinant UMI read abundance (log10)” value was 0.212.
For “AGGCTTTCATGGACCGGTTTTCCCGGTAATCCGTATTTGAC (site AGGCTTTCTGT)”, the “recombinant UMI read abundance (log10)” value was 0.502.
With “AGGCTTTCATGGACCGGTTTTCCCGGTAATCCGTATTTGAC (site AGTCTTTCTGT)” the “recombinant UMI read abundance (log10)” value was 0.
With “AGGCTTTCATGGACCGGTTTTCCCGGTAATCCGTATTTGGC (site AGGCTTTCTGC)” the “recombinant UMI read abundance (log10)” value was 1.61.
With “AGGGATCCATGGACCGGTTTTCCCGGTAATCCGTATTTGAG (site AGGGATCCTCT)” the “recombinant UMI read abundance (log10)” value was 0.635.
In the case of “AGGGCAACATGGACCGGTTTTCCCGGTAATCCGTATTTGTT (site AGGGCAACTAA)”, the “recombinant UMI read abundance (log10)” value is reported as 0.85.
For “AGGGGTTCATGGACCGGTTTTCCCGGTAATCCGTATTTGTC (site AGGGGTTCTGA)”, the “recombinant UMI read abundance (log10)” value was 3.19.
For “AGGGTACCATGGACCGGTTTTCCCGGTAATCCGTATTTGTA (site AGGGTACCTTA)”, the “recombinant UMI read abundance (log10)” value was 0.0065.
In the case of “AGGGTTACATGGACCGGTTTTCCCGGTAATCCGTATTTGGG (site AGGGTTACTCC)”, the “recombinant UMI read abundance (log10)” value is reported as 0.175.
With “AGGTACGCATGGACCGGTTTTCCCGGTAATCCGTATTTGCC (site AGGTACGCTGG)” the “recombinant UMI read abundance (log10)” value was 2.36.
In the case of “AGGTCGGCATGGACCGGTTTTCCCGGTAATCCGTATTTGTA (site AGGTCGGCTTA)”, the “recombinant UMI read abundance (log10)” value is reported as 1.01.
For “AGGTTACCATGGACCGGTTTTCCCGGTAATCCGTATTTGTG (site AGGTTACCTCA)”, the “recombinant UMI read abundance (log10)” value was 0.0116.
In the case of “AGGTTACCATGGACCGGTTTTCCCGGTAATCCGTATTTGTG (site AGGTTCCCTCA)”, the “recombinant UMI read abundance (log10)” value is reported as 0.
With “AGGTTACCATGGACCGGTTTTCCCGGTAATCCGTATTTGTG (site AGGTTGCCTCA)” the “recombinant UMI read abundance (log10)” value was 0.00949.
In the case of “AGGTTACCATGGACCGGTTTTCCCGGTAATCCGTATTTGTG (site AGGTTTCCTCA)”, the “recombinant UMI read abundance (log10)” value is reported as 0.00461.
In the case of “AGGTTCCCATGGACCGGTTTTCCCGGTAATCCGTATTTGTT (site AGGTTCCCTAA)”, the “recombinant UMI read abundance (log10)” value is reported as 0.
In the case of “AGGTTCCCATGGACCGGTTTTCCCGGTAATCCGTATTTGTT (site AGGTTCCCTCA)”, the “recombinant UMI read abundance (log10)” value is reported as 0.0252.
In the case of “AGGTTCCCATGGACCGGTTTTCCCGGTAATCCGTATTTGTT (site AGGTTCCCTGA)”, the “recombinant UMI read abundance (log10)” value is reported as 0.
In the case of “AGGTTCCCATGGACCGGTTTTCCCGGTAATCCGTATTTGTT (site AGGTTCCCTTA)”, the “recombinant UMI read abundance (log10)” value is reported as 0.
With “AGGTTCGCATGGACCGGTTTTCCCGGTAATCCGTATTTGTG (site AGGTTCACTCA)” the “recombinant UMI read abundance (log10)” value was 0.217.
For “AGGTTCGCATGGACCGGTTTTCCCGGTAATCCGTATTTGTG (site AGGTTCCCTCA)”, the “recombinant UMI read abundance (log10)” value was 0.015.
For “AGGTTCGCATGGACCGGTTTTCCCGGTAATCCGTATTTGTG (site AGGTTCGCTCA)”, the “recombinant UMI read abundance (log10)” value was 0.666.
In the case of “AGGTTCGCATGGACCGGTTTTCCCGGTAATCCGTATTTGTG (site AGGTTCTCTCA)”, the “recombinant UMI read abundance (log10)” value is reported as 0.
With “AGGTTGACATGGACCGGTTTTCCCGGTAATCCGTATTTGCG (site AGGTTGACTCG)” the “recombinant UMI read abundance (log10)” value was 2.
In the case of “AGTAAATCATGGACCGGTTTTCCCGGTAATCCGTATTTGGG (site GCCGTTCCTGA)”, the “recombinant UMI read abundance (log10)” value is reported as 0.
For “AGTAACACATGGACCGGTTTTCCCGGTAATCCGTATTTGCA (site AGGAAGACTTG)”, the “recombinant UMI read abundance (log10)” value was 0.
With “AGTAACACATGGACCGGTTTTCCCGGTAATCCGTATTTGCA (site AGTAACACTTG)” the “recombinant UMI read abundance (log10)” value was 2.13.
In the case of “AGTAACGCATGGACCGGTTTTCCCGGTAATCCGTATTTGCA (site AGTAACGCTTG)”, the “recombinant UMI read abundance (log10)” value is reported as 2.29.
In the case of “AGTACCACATGGACCGGTTTTCCCGGTAATCCGTATTTGTT (site AGTACCACTAA)”, the “recombinant UMI read abundance (log10)” value is reported as 0.274.
For “AGTACGTCATGGACCGGTTTTCCCGGTAATCCGTATTTGTT (site AGTACGTCTAA)”, the “recombinant UMI read abundance (log10)” value was 0.258.
With “AGTACGTCATGGACCGGTTTTCCCGGTAATCCGTATTTGTT (site CGTACGTCTAA)” the “recombinant UMI read abundance (log10)” value was 0.552.
For “AGTACGTCATGGACCGGTTTTCCCGGTAATCCGTATTTGTT (site GGTACGTCTAA)”, the “recombinant UMI read abundance (log10)” value was 0.198.
For “AGTACGTCATGGACCGGTTTTCCCGGTAATCCGTATTTGTT (site TGTACGTCTAA)”, the “recombinant UMI read abundance (log10)” value was 0.212.
In the case of “AGTCCCACATGGACCGGTTTTCCCGGTAATCCGTATTTGAA (site AGTCCCACTTT)”, the “recombinant UMI read abundance (log10)” value is reported as 0.752.
With “AGTCCGCCATGGACCGGTTTTCCCGGTAATCCGTATTTGGG (site AGTCCGCCTCC)” the “recombinant UMI read abundance (log10)” value was 0.015.
In the case of “AGTCGAGCATGGACCGGTTTTCCCGGTAATCCGTATTTGAG (site AGTCGAGCTCT)”, the “recombinant UMI read abundance (log10)” value is reported as 1.6.
In the case of “AGTCTTACATGGACCGGTTTTCCCGGTAATCCGTATTTGCG (site AGTCTTACTCG)”, the “recombinant UMI read abundance (log10)” value is reported as 1.32.
In the case of “AGTGAATCATGGACCGGTTTTCCCGGTAATCCGTATTTGAG (site AGTGAATCTCT)”, the “recombinant UMI read abundance (log10)” value is reported as 2.17.
For “AGTGCTGCATGGACCGGTTTTCCCGGTAATCCGTATTTGCA (site AGTGCTGCTTG)”, the “recombinant UMI read abundance (log10)” value was 1.21.
In the case of “AGTGGAACATGGACCGGTTTTCCCGGTAATCCGTATTTGTT (site AGTGGAACTAA)”, the “recombinant UMI read abundance (log10)” value is reported as 1.56.
For “AGTGGAACATGGACCGGTTTTCCCGGTAATCCGTATTTGTT (site CGTGGAACTAA)”, the “recombinant UMI read abundance (log10)” value was 0.295.
